Legend:
TkArkI [1] = biological target: T1, TkArkI (Thermococcus kodakarensis, UniProt Q5JDQ4); assay: LC-MS of ligands extracted from purified protein; format: binding; settings: co-purified from E. coli
T1 construct: gene TK2051; full length, codon-optimised synthetic gene in pE-SUMO-TEV, E. coli; His6-SUMO tag cleaved by Ulp1; residues 1-216 described in structure

TkArkI [2] = biological target: T1, TkArkI; assay: X-ray crystallography, […] Å; LC-MS of bound ligand; settings: co-purified from E. coli; putative ATP-binding pocket

T1 sequence (Q5JDQ4 entry or part of it): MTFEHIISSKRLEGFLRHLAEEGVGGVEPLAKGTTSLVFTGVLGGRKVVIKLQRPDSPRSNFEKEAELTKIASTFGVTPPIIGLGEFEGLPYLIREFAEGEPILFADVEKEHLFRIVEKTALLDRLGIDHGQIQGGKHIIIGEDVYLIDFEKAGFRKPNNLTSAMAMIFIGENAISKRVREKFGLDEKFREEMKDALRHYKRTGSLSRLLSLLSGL

Compound | LC-MS of ligands extracted from purified protein (TkArkI [1]) | X-ray crystallography, 1.8 Å; LC-MS of bound ligand (TkArkI [2])
Nc1nc2c(ncn2[C@H]2C[C@H](O)[C@@H](CO)O2)c(=O)[nH]1 [deoxyguanosine] | We confirmed guanosine (and deoxyguanosine) as a ligand that tightly binds to TkArkI | –
Nc1nc2c(ncn2[C@@H]2O[C@H](CO)[C@@H](O)[C@H]2O)c(=O)[nH]1 [guanosine] | – | we observed a clear electron density for guanosine in the cleft of the two lobes

Source: article PMC9095486, “Reversible RNA phosphorylation stabilizes tRNA for cellular thermotolerance” (Nature, 2022)
